In the NIST ThermoML archive (doi:10.1016/j.jct.2016.09.041):

Test: molar heat capacity at constant pressure
Details: 101.33 kPa, Crystal 1, Small (less than 1 g) adiabatic calorimetry

N[C@@H](Cc1c[nH]c2ccccc12)C(=O)O [L-tryptophan]
Details | molar heat capacity at constant pressure [J/K/mol]
226.65 K | 175.1
227.87 K | 176.35
229.09 K | 177.18
230 K | 177.76
230.31 K | 178.01
231.54 K | 179.09
232.76 K | 179.76
233.98 K | 180.59
235.21 K | 181.67
236.43 K | 182.75
237.66 K | 183.67
238.88 K | 184.5
240 K | 185.25
240.11 K | 185.41
241.34 K | 186.24
242.57 K | 187.33
243.8 K | 188.07
245.03 K | 188.74
246.26 K | 190.07
247.5 K | 190.82
248.75 K | 191.98
249.99 K | 192.56
250 K | 192.81
251.23 K | 193.73
252.46 K | 194.81
253.7 K | 195.72
254.94 K | 196.72
256.18 K | 197.63
257.43 K | 198.47
258.67 K | 199.3
259.92 K | 200.3
260 K | 200.38
261.16 K | 201.13
262.41 K | 202.04
263.66 K | 203.04
264.91 K | 204.12
266.17 K | 204.87
267.42 K | 206.03
268.69 K | 207.2
269.95 K | 208.19
270 K | 208.03
271.21 K | 208.86
272.47 K | 210.02
273.73 K | 210.77
274.99 K | 211.6
276.25 K | 212.93
277.51 K | 213.85
278.78 K | 214.51
280 K | 215.76
280.05 K | 215.84
281.32 K | 216.76
282.59 K | 217.42
283.86 K | 218.5
285.13 K | 219.83
286.41 K | 220.17
287.69 K | 221.58
288.96 K | 222.74
290 K | 223.83
290.24 K | 223.49
291.52 K | 224.57
292.8 K | 225.16
294.08 K | 226.4
295.36 K | 227.48
296.65 K | 227.73
297.93 K | 228.9
298.15 K | 228.98
299.23 K | 229.65
300 K | 230.31
300.76 K | 230.56
302.42 K | 231.39
304.07 K | 232.81
305.72 K | 234.22
307.35 K | 235.3
308.99 K | 236.3
310 K | 237.05
310.61 K | 237.38
312.22 K | 239.21
313.83 K | 240.04
315.43 K | 240.54
317.02 K | 241.62
318.6 K | 242.87
320 K | 243.61
320.17 K | 243.78
321.71 K | 244.28
323.27 K | 246.27
324.81 K | 246.94
326.3 K | 247.85
327.82 K | 248.94
329.34 K | 250.02
330 K | 250.52
330.82 K | 251.18
332.31 K | 252.43
333.79 K | 253.51
335.26 K | 254.09
336.72 K | 255.17
338.17 K | 256.67
339.59 K | 256.42
340 K | 258
341.01 K | 258.66
342.42 K | 259.91
343.82 K | 260.91
345.21 K | 262.16
346.6 K | 263.24
347.91 K | 263.9
349.09 K | 265.81
350 K | 265.98
350.43 K | 266.89
351.76 K | 268.06
353.08 K | 269.06
354.39 K | 269.47
355.67 K | 270.14
356.94 K | 271.3
358.2 K | 272.71
359.46 K | 273.55
360 K | 273.71
360.69 K | 274.04
361.93 K | 275.13
363.07 K | 275.87
364.26 K | 276.54
365.45 K | 277.29
366.62 K | 277.95
367.71 K | 277.87
368.55 K | 278.87
369.68 K | 279.87
370 K | 279.62
370.81 K | 278.62
371.9 K | 280.61
372.99 K | 281.53
